The target in assay [1] is T1, Myostatin (Homo sapiens, UniProt O14793).
T1 construct: active myostatin (also called mature myostatin) is a homodimer consisting of two C-terminal growth factor domains; purchased R&D systems 788-G8/CF
T1 sequence (O14793 267-375): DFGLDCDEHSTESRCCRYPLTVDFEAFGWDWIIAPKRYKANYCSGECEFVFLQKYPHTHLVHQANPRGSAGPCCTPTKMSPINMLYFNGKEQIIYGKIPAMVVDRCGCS
Kind of assay: HepG2 reporter gene assay, Evaluation Procedure (2): 2-concentrations assay, myostatin inhibition. It counts as cell-based. The following applies: HepG2. A digest of the protocol:
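HepG2 cells (HB-8065, ATCC) carrying the transfected pGL3(CAGA)12-luc reporter plasmid were treated with myostatin (788-G8/CF, R&D systems) at a final concentration of 10 ng/mL plus peptide and incubated at 37°C, 5% CO2 for 20 to 24 hours. Luminescence was read after adding PBS mixed 1:1 with One-Glo substrate, and inhibition rate was calculated.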

The target in assay [2] is T2, GDF-11 (Homo sapiens, UniProt O95390).
T2 construct: purchased R&D systems 1958-GD-G8/CF
T2 sequence (O95390 299-407): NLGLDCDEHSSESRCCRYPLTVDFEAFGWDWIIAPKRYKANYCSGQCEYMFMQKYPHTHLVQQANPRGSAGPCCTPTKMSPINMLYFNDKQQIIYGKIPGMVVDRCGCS
Kind of assay: HepG2 reporter gene assay, Evaluation Procedure (2): 2-concentrations assay, GDF-11 inhibition. The following applies: for inhibition at 0.03 µM: HepG2, peptide 30nM, read-out: GDF11 Inhibition 30nM; for inhibition at 0.03 µM / inhibition at 0.1 µM: GDF-11 10 ng/mL; for inhibition at 0.1 µM: HepG2, peptide 100nM, read-out: GDF11 Inhibition 100nM; for inhibition: read-out: inhibition rate (GDF-11 inhibition assay). It counts as cell-based. The procedure, abridged: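 HepG2 cells carrying the transfected pGL3(CAGA)12-luc reporter, a pGL3 vector with luciferase placed downstream of 12 CAGA repeats, were stimulated with GDF-11 at a final 10 ng/mL together with test peptide. Blank wells received no GDF-11 and no peptide. Plates were incubated 20 to 24 hours at 37°C with 5% CO2. Luminescence from One-Glo substrate was read to calculate percent inhibition.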

[3] abbreviates: peptide 30nM, Myostatin 10 ng/mL, read-out: Myostatin Inhibition 30nM.
Setting [4] is: peptide 100nM, Myostatin 10 ng/mL, read-out: Myostatin Inhibition 100nM.

Like-named read-outs stand apart in the source and are kept apart here. Starred links: 1 amine or outer side, 2 acyl side, 3 side chain; linkers in the order of their positions; H or OH if unused. Positions of bridges follow the written chain, without caps; N, C: chain ends. Non-standard residues stand in square brackets, D forms with d. Residues, ends and D or L forms follow the SMILES beside them. Groups on a side chain read outwards from the residue. *: point of attachment. Phe(3-OCH2COOH) = N[C@@H](Cc1cccc(OCC(=O)O)c1)C(=O)O; Phe(3-Ph) = N[C@@H](Cc1cccc(-c2ccccc2)c1)C(=O)O; Phe(4-COOH) = N[C@@H](Cc1ccc(C(=O)O)cc1)C(=O)O; X14 = CCc1cccc(C[C@@H](C(=O)[*:2])N(C)[*:1])c1; Piperazinyl(4-CH2COOH) = O=C(O)CN1CCN(*)CC1; Bip = N[C@@H](Cc1ccc(-c2ccccc2)cc1)C(=O)O; Gly(decyl) = CCCCCCCCCC[C@H](N)C(=O)O; Gly(N(CH2)3COOH) = O=C(O)CCCNCC(=O)O; NMeY = CN[C@@H](Cc1ccc(O)cc1)C(=O)O; X1 = CCCCCCC[C@H](N[*:1])C(=O)[*:2]; NMeCha = CN[C@@H](CC1CCCCC1)C(=O)O; NMeF = CN[C@@H](Cc1ccccc1)C(=O)O; Cha = N[C@@H](CC1CCCCC1)C(=O)O; dAad = N[C@H](CCCC(=O)O)C(=O)O; NMeA = CN[C@@H](C)C(=O)O; CO = O=C([*:1])[*:2]; Sar = CNCC(=O)O

With `CCCCCCC[C@@H]1NC(=O)[C@H](Cc2ccccc2)N(C)C(=O)[C@H](CCCNC(=N)N)NC(=O)[C@H](Cc2ccc(C(=O)O)cc2)NC(=O)[C@H](Cc2cccc(OCC(=O)O)c2)NC(=O)CN(C)C(=O)[C@H]([C@@H](C)CC)NC(=O)[C@H](Cc2ccccc2)N(C)C(=O)[C@H](Cc2cccc(-c3ccccc3)c2)NC(=O)[C@H](Cc2c[nH]c3ccccc23)NC(=O)[C@H](C)NC(=O)[C@H](C)NC(=O)CSC[C@H](C(=O)N2CCN(CC(=O)O)CC2)NC(=O)[C@H](Cc2ccccc2)N(C)C(=O)[C@H](C)N(C)C1=O` [Myostatin_99_v301] ({CH2CO}-AAW[Phe(3-Ph)][NMeF]I[Sar][Phe(3-OCH2COOH)][Phe(4-COOH)]R[NMeF][X1][NMeA][NMeF][dC]-{Piperazinyl(4-CH2COOH)}; thioether N-15), the inhibition at 0.03 µM in assay [1] (setting [3]) stood at 93%; in assay [2], 0%. Besides, the values for the inhibition at 0.1 µM in assay [1] (setting [4]) and in assay [2] were 99% and 0%, respectively.

Regarding `CCCCCCC[C@@H]1NC(=O)[C@H](Cc2ccccc2)N(C)C(=O)[C@H](CCCNC(=N)N)NC(=O)[C@H](Cc2ccc(C(=O)O)cc2)NC(=O)[C@H](Cc2cccc(OCC(=O)O)c2)NC(=O)[C@H](C)N(C)C(=O)[C@H]([C@@H](C)CC)NC(=O)[C@H](Cc2ccccc2)N(C)C(=O)[C@H](Cc2ccc(O)cc2)NC(=O)[C@H](Cc2c[nH]c3ccccc23)NC(=O)[C@H](C)NC(=O)CN(CCCC(=O)O)C(=O)CCC[C@H](C(=O)O)NC(=O)[C@H](Cc2ccccc2)N(C)C(=O)[C@H](C)N(C)C1=O` [Myostatin_99_v434] ([Gly(N(CH2)3COOH)]AWY[NMeF]I[NMeA][Phe(3-OCH2COOH)][Phe(4-COOH)]R[NMeF][X1][NMeA][NMeF][dAad]-OH; lactam N-15), the inhibition at 0.1 µM in assay [1] (Table 7-3/7-4, myostatin 10 ng/mL, peptide at the higher of the 2 concentrations, read-out: inhibition rate (myostatin inhibition assay)) was 100%. Further, the inhibition at 0.03 µM in assay [1] (Table 7-3/7-4, myostatin 10 ng/mL, peptide at the lower of the 2 concentrations, read-out: inhibition rate (myostatin inhibition assay)) came to 98%. The inhibition in assay [2] (HepG2, first GDF-11 column of Table 7-3/7-4, GDF-11 10 ng/mL, peptide at the lower of the 2 concentrations) worked out at 0%; in assay [2] (HepG2, second GDF-11 column of Table 7-3/7-4, GDF-11 10 ng/mL, peptide at the higher of the 2 concentrations), 0%.

With `CCc1cccc(C[C@H]2C(=O)N[C@@H](C(=O)O)CSCC(=O)N(CCCC(=O)O)CC(=O)N[C@@H](C)C(=O)N[C@@H](Cc3ccc(-c4ccccc4)cc3)C(=O)N[C@@H](Cc3ccc(O)cc3)C(=O)N(C)[C@@H](Cc3ccc(O)cc3)C(=O)N[C@@H]([C@@H](C)CC)C(=O)N(C)CC(=O)N[C@@H](Cc3cccc(OCC(=O)O)c3)C(=O)N[C@@H](Cc3ccc(C(=O)O)cc3)C(=O)N[C@@H](CCCNC(=N)N)C(=O)N(C)[C@@H](Cc3ccccc3)C(=O)N[C@@H](CC(C)C)C(=O)N(C)[C@@H](C)C(=O)N2C)c1` [Myostatin_99_v113] ({CH2CO}-[Gly(N(CH2)3COOH)]A[Bip]Y[NMeY]I[Sar][Phe(3-OCH2COOH)][Phe(4-COOH)]R[NMeF]L[NMeA][X14][dC]-OH; thioether N-15), the inhibition at 0.03 µM was found to be 35% in assay [1] (setting [3]) and 0% in assay [2]. Further, the inhibition at 0.1 µM in assay [1] (setting [4]) was 70%; in assay [2] it was 0%.

Regarding `CCCCCCCCCC[C@@H]1NC(=O)[C@H](CC2CCCCC2)NC(=O)[C@H](CCCNC(=N)N)NC(=O)[C@H](Cc2ccc(C(=O)O)cc2)NC(=O)[C@H](CCCCNC(=O)N2CCN(CC(=O)O)CC2)NC(=O)[C@H]2CCCN2C(=O)[C@H]([C@@H](C)CC)NC(=O)[C@H](CC2CCCCC2)N(C)C(=O)[C@H](Cc2ccc(O)cc2)NC(=O)[C@H](Cc2c[nH]c3ccccc23)NC(=O)[C@@H](CCC(=O)O)NC(=O)[C@H](C)NC(=O)CSC[C@H](C(=O)N2CCN(CC(=O)O)CC2)NC(=O)[C@H](Cc2ccccc2)N(C)C(=O)[C@H](C)N(C)C1=O` [Myostatin_99_v247] ({CH2CO}-A[dE]WY[NMeCha]I[dP]K([CO-Piperazinyl(4-CH2COOH)])[Phe(4-COOH)]R[Cha][Gly(decyl)][NMeA][NMeF][dC]-{Piperazinyl(4-CH2COOH)}; thioether N-15), the inhibition at 0.03 µM stood at 68% in assay [1] (setting [3]) and 0% in assay [2]. Besides, the inhibition at 0.1 µM in assay [1] (setting [4]) came out at 94%; in assay [2], 6%.

For orientation: inhibition means the relative decrease from the control value, in per cent.

(Values after EP4786487A1, “PEPTIDE” (Peptidream Inc, priority 2023, dated 2025).)
